Usually IC50 stands for the concentration that gives 50% inhibition. What is called ED50 is the dose that gives a 50% effect, or the effect in half of the subjects. For orientation: solubility means the dissolved amount per volume that the medium holds. As usually defined, the inhibition is the share of the control response that was lost under treatment. A word on the Cmax: it is the peak of the concentration-time curve. One may read the half-life as how long it takes for the measured level to halve. Usually bioavailability stands for dose-corrected exposure relative to a reference, in per cent.

Converted amounts (≈) assume the structure as drawn.

This is an account of results in ChEMBL document CHEMBL1155508, “Discovery of TRPV1 antagonist ABT-116” (Bioorg Med Chem Lett, 2010).

Series [1] has as its target T1, Transient receptor potential cation channel subfamily V member 1 (Homo sapiens, UniProt Q8NER1). As to the kind of experiment: Antagonist activity at human TRPV1. It counts as functional.
In series [2] the test system is Rattus norvegicus. As to the kind of experiment: Antiinflammatory activity against complete Freund's adjuvant-induced thermal hyperalgesia in po dosed rat. It counts as functional.
The nature of series [3]: Ratio of drug level in brain to plasma in rat at 10 µmol/kg, po. Conditions: read-out: BPR.
The target in series [4] is T1, Transient receptor potential cation channel subfamily V member 1. Put plainly: Antagonist activity at human TRPV1 expressed in HEK293 cells assessed as inhibition of capsaicin-induced effect by capsaicin.
In series [5] the test system is Rattus norvegicus. Put plainly: Antiinflammatory activity against carrageenan-induced thermal hyperalgesia in po dosed rat. It counts as functional.
Series [6] relates to Rattus norvegicus. Put plainly: Antiinflammatory activity in rat osteoarthritis model assessed as inhibition of thermal hyperalgesia in po dosed rat. It counts as functional.
The nature of series [7]: Aqueous solubility of the compound. It counts as physicochemical.
Series [8] deals with Transient receptor potential cation channel subfamily V member 1 (Rattus norvegicus, UniProt O35433). Put plainly: Antagonist activity at rat TRPV1 assessed as inhibition of capsaicin-induced effect. It counts as functional.
Sequence of Transient receptor potential cation channel subfamily V member 1 (Rattus norvegicus, UniProt O35433) (O35433 whole entry): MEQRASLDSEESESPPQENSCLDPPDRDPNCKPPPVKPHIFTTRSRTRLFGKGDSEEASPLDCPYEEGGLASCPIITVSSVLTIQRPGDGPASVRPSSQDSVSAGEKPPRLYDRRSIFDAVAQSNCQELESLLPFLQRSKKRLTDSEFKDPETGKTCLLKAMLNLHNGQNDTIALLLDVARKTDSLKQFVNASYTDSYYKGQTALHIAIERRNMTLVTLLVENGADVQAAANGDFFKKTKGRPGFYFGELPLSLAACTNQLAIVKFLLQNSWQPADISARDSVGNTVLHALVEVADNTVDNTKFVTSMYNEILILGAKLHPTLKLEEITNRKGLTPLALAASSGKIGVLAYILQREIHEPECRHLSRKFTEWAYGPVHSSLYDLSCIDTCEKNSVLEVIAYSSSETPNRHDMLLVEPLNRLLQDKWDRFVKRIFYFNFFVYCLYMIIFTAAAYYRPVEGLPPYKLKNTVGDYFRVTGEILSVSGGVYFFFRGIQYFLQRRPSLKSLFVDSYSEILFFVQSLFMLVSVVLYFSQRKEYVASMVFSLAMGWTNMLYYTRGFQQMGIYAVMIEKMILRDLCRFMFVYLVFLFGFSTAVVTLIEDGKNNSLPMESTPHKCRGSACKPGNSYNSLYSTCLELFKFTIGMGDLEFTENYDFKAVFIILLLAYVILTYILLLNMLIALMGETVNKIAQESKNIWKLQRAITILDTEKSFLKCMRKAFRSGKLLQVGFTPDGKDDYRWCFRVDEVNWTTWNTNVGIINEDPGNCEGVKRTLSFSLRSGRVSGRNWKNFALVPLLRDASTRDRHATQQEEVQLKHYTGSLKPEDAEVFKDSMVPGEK
Another series has as its target CYP3A4 (Homo sapiens, UniProt P08684). As to the kind of experiment: Inhibition of CYP3A4 assessed as midazolam oxidation at 10 uM. Conditions: probe midazolam. It counts as ADME.
Series [9] concerns Rattus norvegicus. As to the kind of experiment: Antiinflammatory activity in rat osteoarthritis model assessed as reduction of pain in rat at 10 umol/kg, po bid measured after 12 days. It counts as functional. Also on record: scale not given: the % may be the effect or the level left.
Series [10] can be described thus: Solubility in lipid. It counts as physicochemical.
In series [11] the test system is Rattus norvegicus. As to the kind of experiment: Toxicity in rat assessed as increase of body temperature at 100 umol/kg, po after 1 hr. It counts as organism-based. Conditions: in vivo.
Series [12] has as its target T1, Transient receptor potential cation channel subfamily V member 1. As to the kind of experiment: Antagonist activity at human TRPV1 expressed in HEK293 cells assessed as inhibition of N-arachidonoyl-dopamine-induced effect. It counts as functional, cell-based.
Series [13] is described as follows: Cmax in rat at 10 µmol/kg, po. Conditions: in vivo.
A short description of series [14]: Half life in rat at 10 µmol/kg, po. Conditions: in vivo.
Series [15] has as its system Rattus norvegicus. As to the kind of experiment: Plasma clearance in rat at 10 µmol/kg, po. The following applies: in vivo.
Series [16] in a line: Oral bioavailability in rat at 10 µmol/kg. The following applies: in vivo.
The subject of series [17] is Rattus norvegicus. Put plainly: Volume of distribution at steady state in rat at 10 µmol/kg, po. The following applies: in vivo.
Series [18] has as its system Rattus norvegicus. As to the kind of experiment: Antiinflammatory activity in rat osteoarthritis model assessed as reduction of pain in rat at 10 umol/kg, po single dose. Also on record: scale not given: the % may be the effect or the level left.
Series [19] concerns Rattus norvegicus. As to the kind of experiment: Antiinflammatory activity in rat post operative pain model assessed as reduction in pain in rat at 100 umol/kg, po single dose. More on the design: scale not given: the % may be the effect or the level left.
A short description of series [20]: Solubility in PEG-400. It counts as physicochemical.
The nature of series [21]: Terminal phase volume of distribution at steady state in iv dosed rat. It counts as ADME, organism-based. The following applies: in vivo, read-out: Vbeta.
Series [22] in a line: Plasma clearance in iv dosed rat. It counts as ADME, organism-based.
The target in the next series is Cytochrome P450 3A4 (Homo sapiens, UniProt P08684). Put plainly: Inhibition of CYP3A4. It counts as ADME. Conditions: TDE = time-dependent effect.
Sequence of Cytochrome P450 3A4 (P08684 whole entry): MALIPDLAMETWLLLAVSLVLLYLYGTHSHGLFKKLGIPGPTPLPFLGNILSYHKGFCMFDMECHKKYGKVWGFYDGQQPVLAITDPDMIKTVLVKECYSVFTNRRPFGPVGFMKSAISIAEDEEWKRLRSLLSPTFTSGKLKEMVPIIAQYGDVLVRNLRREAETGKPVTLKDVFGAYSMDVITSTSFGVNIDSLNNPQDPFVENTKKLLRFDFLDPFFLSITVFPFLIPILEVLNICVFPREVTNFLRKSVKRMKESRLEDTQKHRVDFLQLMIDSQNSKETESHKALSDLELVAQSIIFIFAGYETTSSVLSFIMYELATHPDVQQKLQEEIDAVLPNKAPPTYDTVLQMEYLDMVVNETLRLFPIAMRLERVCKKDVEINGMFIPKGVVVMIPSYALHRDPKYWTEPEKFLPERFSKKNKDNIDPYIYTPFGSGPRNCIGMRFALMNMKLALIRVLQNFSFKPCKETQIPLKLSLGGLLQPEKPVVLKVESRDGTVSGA
Series [23] can be described thus: Genotoxicity in Salmonella Typhimurium by Ames test. The following applies: salmonella enterica subsp. enterica serovar typhimurium. It counts as toxicity. For orientation: The Ames test detects mutagens through reverse mutation in bacteria.

T1 sequence (Q8NER1 whole entry): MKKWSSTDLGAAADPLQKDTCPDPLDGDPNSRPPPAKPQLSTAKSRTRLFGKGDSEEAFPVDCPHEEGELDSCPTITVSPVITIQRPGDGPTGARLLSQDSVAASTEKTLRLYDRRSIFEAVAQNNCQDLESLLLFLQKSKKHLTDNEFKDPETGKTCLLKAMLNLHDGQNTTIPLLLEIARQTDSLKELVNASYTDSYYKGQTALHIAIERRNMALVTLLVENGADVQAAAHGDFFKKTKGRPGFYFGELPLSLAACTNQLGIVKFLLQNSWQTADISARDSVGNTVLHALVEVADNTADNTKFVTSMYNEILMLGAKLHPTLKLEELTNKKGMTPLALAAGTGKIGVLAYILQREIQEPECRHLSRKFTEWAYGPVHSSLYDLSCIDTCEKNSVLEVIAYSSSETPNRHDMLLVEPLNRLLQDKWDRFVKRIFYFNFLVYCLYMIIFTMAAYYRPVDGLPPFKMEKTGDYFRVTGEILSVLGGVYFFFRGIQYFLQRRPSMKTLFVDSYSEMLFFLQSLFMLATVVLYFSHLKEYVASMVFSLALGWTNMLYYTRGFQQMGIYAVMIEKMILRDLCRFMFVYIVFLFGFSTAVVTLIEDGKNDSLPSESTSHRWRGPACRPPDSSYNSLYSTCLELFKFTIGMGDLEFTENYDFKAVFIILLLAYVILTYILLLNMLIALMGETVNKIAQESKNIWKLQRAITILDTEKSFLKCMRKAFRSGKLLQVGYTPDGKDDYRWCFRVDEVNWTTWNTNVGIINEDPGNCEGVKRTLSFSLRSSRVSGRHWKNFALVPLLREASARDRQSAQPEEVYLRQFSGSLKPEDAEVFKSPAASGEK
Sequence of CYP3A4 (P08684 whole entry): as the sequence (P08684 whole entry) above

In the case of `O=C(NCc1ccc(C(F)(F)F)nc1N1CCOCC1)Nc1cccc2[nH]ncc12`, the concentration for half-maximal inhibition (IC50) in series [1] is 12 nM. In addition, the 50% effective dose (ED50) with Rattus norvegicus [2] is 33 µmol/kg.
In series [1], `Cc1ccc(CNC(=O)Nc2cccc3[nH]ncc23)c(N2CCOCC2)n1` showed a 50% inhibitory concentration (IC50) of 125 nM.
With `O=C(NCc1ccc(C(F)(F)F)cc1CCc1ccccc1)Nc1cccc2[nH]ncc12`, the IC50 in series [1] was 8 nM. Besides, the 50% effective dose (ED50) in the series with Rattus norvegicus [2] was determined as 30 µmol/kg.
As for `O=C(NCc1ccc(C(F)(F)F)cc1Oc1ccccc1)Nc1cccc2[nH]ncc12`, the half-inhibitory concentration (IC50) in series [1] was found to be 9 nM. For the same molecule, the 50% effective dose (ED50) in the series on Rattus norvegicus [2] stood at 22 µmol/kg.
`O=C(NCc1ccc(C(F)(F)F)nc1N1CCCCC1)Nc1cccc2[nH]ncc12` returned a concentration for half-maximal inhibition (IC50) in series [1] of 3.5 nM. Also, the ED50 with Rattus norvegicus [2] was 30 µmol/kg.
`Cc1ccc(CNC(=O)Nc2cccc3[nH]ncc23)c(N2CCCCC2)n1` gave an IC50 in [1] of 16 nM. For the same molecule, the ED50 with Rattus norvegicus [2] came out at 53 µmol/kg.
On the same counts, the results for `CC(C)(C)CCc1nc(C(F)(F)F)ccc1CNC(=O)Nc1cccc2[nH]ncc12` are 5 nM and 100 µmol/kg.
`COCCCc1cc(C(F)(F)F)ccc1CNC(=O)Nc1cccc2[nH]ncc12` registered a 50% inhibitory concentration (IC50) in series [1] of 8 nM.
For the molecule `CC(C)(C)COc1nc(C(F)(F)F)ccc1CNC(=O)Nc1cccc2[nH]ncc12`, it took 6 nM to reach half-maximal inhibition in [1] (IC50). The ED50 in the series with Rattus norvegicus [2] is over 100 µmol/kg. Besides, the Kp in series [3] was determined as 0.02.
With `CCn1ncc2c(NC(=O)NCc3ccc(C(F)(F)F)cc3CCC(C)(C)C)cccc21`, the 50% inhibitory concentration (IC50) in series [4] was found to be 53 nM.
The same measure, in the same setting: to `CC(C)n1ncc2c(NC(=O)NCc3ccc(C(F)(F)F)cc3CCC(C)(C)C)cccc21` belongs 69 nM.
Turning to `Cn1ncc2c(NC(=O)NCc3ccc(C(F)(F)F)cc3CCC(C)(C)C)cccc21`, the ED50 in the series with Rattus norvegicus [5] came out at 25 µmol/kg; in the series with Rattus norvegicus [6], 66 µmol/kg. Further, the solubility in series [7] is under 0.01 µg/mL; in series [10], over 67 µg/mL. Also, the results for the 50% inhibitory concentration (IC50) in [8], in series [12] and in [4] were 277 nM, 15 nM and 7 nM, respectively. In addition, the inhibition at 10 µM at CYP3A4 came to 10%. Besides, the Activity came out at 67% with Rattus norvegicus [9], 20% in the series with Rattus norvegicus [18] and 45% in the series with Rattus norvegicus [19]. Moreover, in the series with Rattus norvegicus [11], the T was determined as 0.9 °C. Moreover, in [13], the Cmax came to 140 ng/mL. Also, in series [14], the half-life is 3.1 h. The clearance with Rattus norvegicus [15] was found to be 13.3 mL/min/kg. Also, the bioavailability in series [16] was determined as 58%. In the series with Rattus norvegicus [17], this molecule returned a Vdss of 3.4 L/kg. Also, in series [3], the Kp stood at 0.32.
Consider `O=C(NCc1ccc(C(F)(F)F)nc1)Nc1cccc2[nH]ncc12`, for which the IC50 in series [1] turned out to be 184 nM. The ED50 in the series with Rattus norvegicus [2] worked out at 81 µmol/kg.
On the same counts, the results for `O=C(NCc1ccc(C(F)(F)F)nc1Oc1ccccc1)Nc1cccc2[nH]ncc12` are 9 nM and 30 µmol/kg.
As to `COCCOc1nc(C(F)(F)F)ccc1CNC(=O)Nc1cccc2[nH]ncc12`, in [1], the IC50 worked out at 18 nM.
With `COCCCc1nc(C(F)(F)F)ccc1CNC(=O)Nc1cccc2[nH]ncc12`, the IC50 in [1] was found to be 12 nM. For the same molecule, the 50% effective dose (ED50) in the series with Rattus norvegicus [2] was over 30 µmol/kg.
For `CC(C)c1cc(C(F)(F)F)ccc1CNC(=O)Nc1cccc2[nH]ncc12`, in that order: 9 nM and 14 µmol/kg.
For `CC(C)(F)CCc1cc(C(F)(F)F)ccc1CNC(=O)Nc1cccc2[nH]ncc12`, in that order: 6 nM and 58 µmol/kg.
As to `CC(C)(C)CCc1cc(C(F)(F)F)ccc1CNC(=O)Nc1cccc2[nH]ncc12`, the half-inhibitory concentration (IC50) in [1] came to 4.3 nM. The results for the 50% effective dose (ED50) in the series on Rattus norvegicus [2], in the series on Rattus norvegicus [5] and in the series with Rattus norvegicus [6] were 15 µmol/kg, 7 µmol/kg and 71 µmol/kg, respectively. Also, the solubility in [7] is 0.42 µg/mL (≈ 1 µM); in series [20] it was over 100 µg/mL. In addition, the Vd in series [21] was determined as 5.4 L/kg. For the same molecule, the clearance in series [22] is 20 mL/min/kg. At Cytochrome P450 3A4, the “inhibition (INH)” value is “tde”. Further, at CYP3A4, the inhibition at 10 µM worked out at 86%. Moreover, the Activity result in series [23] was “Non-toxic”. In series [14], the half-life is 4.3 h. In series [16], this molecule came in with a bioavailability of 35%. Further, in series [3], the Kp is 0.45.
`O=C(NCc1ccc(-c2ccccc2)nc1N1CCCCC1)Nc1cccc2[nH]ncc12` displayed an IC50 in series [1] of 14 nM. In addition, in the series with Rattus norvegicus [2], the ED50 worked out at 37 µmol/kg.
`CC(C)(C)c1ccc2c(c1)CC[C@H]2NC(=O)Nc1cccc2[nH]ncc12` [ABT-102]: the Kp in [3] came to 0.32.
